What was measured:
[1] = test system: capsaicin-sensitive DRG neuronal cells; test: [Ca^2+]i transients in DRG neuronal cells in culture; format: cell-based, rat; details: for Peak [Ca^2+]i (Average ± SD): 10 μM applied for 1 min, 2 mM Ca^2+
Description: Effect of Gingerol Analogues Towards Rat Dorsal Root Ganglia
Capsaicin, the pungent component in peppers of the Capsicum genus, family Solanaceae, has the ability to excite a subset of sensory neurons, which include polymodal nociceptors and warm thermoceptors (Fitzgerald, 1983) by opening non-selective cation channels that are permeable to Na^+, K^+, and Ca^2+ (Bevan and Szolcsanyi, 1990). It has been shown that capsaicin evoked a concentration-dependent rise in [Ca^2+]i in cultured dorsal root ganglion neurons. The duration of the elevation of [Ca^2+]i depended on the concentration of capsaicin (Choleswinski, et al., 1993). In this investigation peak [Ca^2+]i transient measurements are used as a model for testing gingerol analogues.
DRG from neonatal (3-5 days old) rat or adult Sprague-Dawley rats were incubated in Hanks CMF saline with 0.05% collagenase and 0.25% trypsin for 25 min at 37° C. Individual cells were obtained by trituration with fire polished Pasteur pipettes of diminishing diameters. Neurones were isolated from the cell suspension in 30% Percoll and then plated on collagen coated coverslips or in 24-well plates, then cultured in neurobasal medium with B27 supplement, 50 ng/ml 2.5 S nerve growth factor, 2 mM 1-glutamine and 100 U/ml penicillin/streptomycin. Cultures were maintained at 37° C. with 5% CO2. 30% Percoll increases the percentage of capsaicin-sensitive DRG neurones up to 70%. For peak [Ca^2+]i transients measurements, cells on coverslips were incubated with 5 μM Fura-2 AM for 30 min at 37° C. The coverslips were then mounted on a chamber attached to a fast sample application perfusion system which allows changing solutions in the second range. Recordings were made on the stage of a Nikon Diaphot inverted microscope fitted with a Nikon 40×Fluo (NA 0.85) DL Ph3 or 40×Fluo (NA 1.3) oil objective. [Ca^2+]i was calculated from dual excitation wavelength (340/380 nm) fluorescence measurements following an intracellular calibration procedure by the Grynkiewicz equation, using MCID M2/M4 v.3.0 (Imaging Res. Inc.) software. Cells were continuously perfused with a solution consisting of 140 mM NaCl, 2 mM CaCl2, 5 mM KCl, 20 mM HEPES, 10 mM glucose, pH 7.4. To study KCl evoked depolarisation, 50 mM NaCl was replaced by equimolar KCl. Cytoplasmic localisation of Fura-2 was tested with the Mn^2+ quenching technique (Dedov and Roufogalis, 1998). All experiments were performed at room temperature (20-23° C.).
Typical changes in [Ca^2+]i upon depolarisation were evoked by 50 mM KCl and by application of 1 μM capsaicin; both were applied for 30 sec. Capsaicin-evoked peak [Ca^2+]i transients are characterised by a fast rise and long-steady state [Ca^2+]i clearance from the cytoplasm. In capsaicin-sensitive cells the half-time of cytoplasmic Ca^2+ clearance was proportional to the amplitudes of peak [Ca^2+]i transients.
To examine the effect of gingerol derivatives, one or several compounds in succession at a concentration of 10 μM were applied for 1 min to the DRG neuronal cells followed by washing out for 4 min with physiological solution. To the capsaicin-sensitive cells, 10 μM capsaicin and 50 mM KCl were applied, respectively, to confirm the viability of the cells. In addition, morphological appearances of the cells were also examined at the end of experiment. […]

[2] = test system: guinea pig atria; test: Organ bath assay, isolated guinea pig atria (rate and force of contraction)
Experimental: Male guinea pigs, 3-4 weeks old, were killed by rapid cervical dislocation without induced anaesthesia. Then, the guinea pigs were dissected to isolate the atria which were immediately mounted vertically in an organ bath containing Krebs-Henseleit solution oxygenated with carbogen.
One gram tension was applied to the atria and the base line continuously adjusted until it was stable for 20 mins. The rate and force of contraction were recorded using Mac Lab equipment.
Test substances in DMSO were assayed to a maximum concentration of 50 μM at a final concentration of 2.5% of DMSO.

[3] = test system: rat mesenteric artery; test: Vasodilation on rat mesenteric artery; details: for potency in relaxing rat mesenteric artery / vascular bed, in words: preliminary investigation
Description: The proposed mechanism of neuropeptide release by 1-(4-hydroxy-3-methoxyphenyl)dodecan-3-ol, similar to that of capsaicin, was supported by studies in blood vessels. […] This contrasts with capsaicin which has similar activity in Guinea pig atria (force and rate) and relaxing rat mesenteric artery.

[4] = test system: brine shrimp (Artemia salina Leach); test: Brine shrimp assay; format: in vivo
Description: Toxicity—Brine Shrimp Assay
The brine shrimp assay procedure determines LC50 values of active compounds. Activities of a broad range of known active compounds are manifested as toxicity to brine shrimp (Artemia salina Leach). There are many applications of the assay including analysis of toxic substances, anaesthetics, morphine-like substances and cocarcinogenicity of phorbol esters.
DMSO (dimethyl sulfoxide) was the solvent of choice because of its good solubilising properties and also because the substances used in the ATPase inhibition assays were already prepared with DMSO.
The method for testing solvent toxicity used was basically that reported by J L McLaughlin in Methods of Plant Biochemistry (1991), vol. 6 (K Hostettman, ed.), Academic Press, London, 1-32. DMSO solutions of the substances to be tested were added directly to the vials containing the brine shrimp. As the concentration of DMSO is that we wished to use was higher than the recommended 1% v/v testing of the toxicity of the DMSO was therefore necessary. The concentrations of DMSO tested on the shrimp, along with the results from the assay which was done in duplicate are listed below.
Brine shrimp toxicity was assayed, except for some minor modifications, according to the method of McLaughlin et al as reported in Brine Shrimp: A convenient bioassay for active plant constituents, B N Meyer, N R Ferrigni, J E Putnam, L B Jacobsen, D E Nichols and J L McLaughlin in Planta Medica (1982), 45, 31-34 and Crown gall tumours on potato discs and brine shrimp lethality: Two simple bioassays for higher plant screening and fractionation. J L McLaughlin. Methods of Plant Biochemistry (1991), vol. 6 (K Hostettman, ed.), Academic Press, London, 1-32. Ten shrimp were transferred to each of the vials and the volume adjusted to 4.9 mL. Each dose was performed in triplicate, including the control. In quick succession, the appropriate volume of additional DMSO for each dose, required to achieve a final concentration of 2%, was added before the appropriate volume of test solution. The vials were gently mixed and the time noted. After 24 hours, the number of survivors were counted and % mortality was determined. The test compounds were assayed at concentrations of 100 μM, 25 μM, 5 μM, 1 μM and 0.2 μM (and where appropriate concentrations of 0.04 μM and 0.008 μM).
The brine shrimp were able to survive without food in the vials over the 24 hour period and were therefore not fed.
The dose-response curves were constructed using the Sigmaplot computer program and the LC50 value was calculated from the intersection point of the curve and the 50% mortality line. The LC50 values were expressed in both μM and μg/mL.
For substances with low toxicity, the greater sign “>” indicated the highest concentration at which the assay was carried out as precipitation of the substances occurred above that concentration.

[5] = target: T1, Ca^2+-ATPase of dog cardiac SR (Canis lupus familiaris, UniProt O46674); test: Sarcoplasmic reticulum Ca^2+-ATPase assay; format: biochemical; details: 0 μM = 100
T1 construct: SR membrane (75 μg/ml): 24 μl; from tissue; host or cells: dog cardiac sarcoplasmic reticulum membranes
Experimental: A. Sarcoplasmic Reticulum Ca^2+-ATPase Assay
SR membrane (75 μg/ml): 24 μl
Test substance: appropriate volumes to give a dose-effect concentration
Incubation buffer: up to 240 μl
A portion at each concentration (54 μl) was aliquoted into 4 designated wells of the microplate (two of four wells were controls). Each well was mixed with ATP solution (20 mM, 6 μl), except the controls, using an 8 channel pipette. The controls were assayed in the absence of ATP or calcium.
The plate was incubated with the lid on, for 30 min at 37° C., colour reagent (160 μl) was then added and mixed with citrate solution (34%, 30 μl). The plate was developed at room temperature for 30 min then absorbance at 655 nm was read from the microplate reader. The Ca^2+-ATPase activity was quantitated, from a Pi standard curve, as concentration of liberated inorganic phosphate.
Stock solutions (10 mM) of test substance were prepared in DMSO, then series dilutions were made either in DMSO or in 1M HEPES to produce the dose-response concentrations. The maximum concentration of DMSO in the final assay solution was 2.5%.
Each concentration of test substance was assayed in duplicate in the presence and absence of ATP or calcium. Phosphate standards are run on each plate as follows:
Effect of gingerols and their derivatives on the Ca^2+-ATPase of dog cardiac SR.

[6] = test system: cardiac Purkinje fibres; test: Cardiac electrophysiology on Purkinje fibres; design: species or system dog; details: up to 10 μM
Experimental: Cardiac Electrophysiological Activities of Gingerol and its Analogue
The basic cardiac electrophysiological properties were assessed using cardiac Purkinje fibres obtained from adult mongrel dogs.
Electrophysiology was carried out on dog heart purkinje fibre to test for potential arrhythmia. […] At high concentration (50 μM), however, [8]-gingerol reduced approximate 80% and 50% of action potential duration at 50% and 90% repolarisations respectively. Whereas the analogue reduced 75% and 30% respectively.

T1 sequence (O46674 whole entry): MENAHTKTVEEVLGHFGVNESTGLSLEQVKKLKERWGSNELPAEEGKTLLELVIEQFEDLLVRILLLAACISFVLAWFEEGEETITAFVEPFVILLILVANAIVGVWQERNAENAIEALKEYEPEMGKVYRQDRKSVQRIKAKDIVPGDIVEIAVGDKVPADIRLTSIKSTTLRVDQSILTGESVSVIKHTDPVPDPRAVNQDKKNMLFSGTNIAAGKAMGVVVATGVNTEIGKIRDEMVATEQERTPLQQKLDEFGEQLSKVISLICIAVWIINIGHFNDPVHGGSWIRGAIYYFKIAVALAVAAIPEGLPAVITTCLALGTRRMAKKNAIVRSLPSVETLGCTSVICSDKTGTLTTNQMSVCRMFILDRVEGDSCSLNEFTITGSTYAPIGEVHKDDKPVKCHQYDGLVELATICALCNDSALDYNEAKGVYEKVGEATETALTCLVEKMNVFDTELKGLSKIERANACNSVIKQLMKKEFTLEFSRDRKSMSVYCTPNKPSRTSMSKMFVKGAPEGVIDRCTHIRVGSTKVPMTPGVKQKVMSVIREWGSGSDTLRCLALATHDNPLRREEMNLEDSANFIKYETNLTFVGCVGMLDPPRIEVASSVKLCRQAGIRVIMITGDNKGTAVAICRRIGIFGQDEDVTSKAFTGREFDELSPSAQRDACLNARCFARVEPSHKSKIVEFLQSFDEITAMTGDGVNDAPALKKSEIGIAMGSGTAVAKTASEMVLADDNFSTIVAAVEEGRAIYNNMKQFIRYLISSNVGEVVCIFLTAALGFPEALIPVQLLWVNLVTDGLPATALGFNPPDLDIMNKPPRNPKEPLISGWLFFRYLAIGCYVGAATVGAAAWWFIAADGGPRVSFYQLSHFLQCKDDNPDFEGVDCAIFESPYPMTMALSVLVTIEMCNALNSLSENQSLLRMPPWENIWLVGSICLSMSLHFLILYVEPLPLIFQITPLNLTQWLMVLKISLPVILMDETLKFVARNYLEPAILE

Structure (SMILES): CCCCCCCCC(C)(O)CCc1ccc(O)c(OC)c1 (centres unmarked) [3-methyl-1-(4-hydroxy-3-methoxyphenyl)undecan-3-ol]
- Peak [Ca^2+]i (Average ± SD) [1]: 0 nM

Structure (SMILES): CCCCCCCC(O)CC(=O)C=Cc1ccc(O)c(OC)c1 (centres unmarked) [[8]-dehydrogingerol, 5-hydroxy-1-(4-hydroxy-3-methoxyphenyl)dodecan-1-ene-3-one, reference compound]
- time for tension to reach maximum after addition of a dose [2]: a few mins

Structure (SMILES): COc1cc(CNC(=O)CCCC/C=C/C(C)C)ccc1O [Capsaicin, reference compound]
- evoked [Ca^2+]i transients in Ca^2+-free medium or with ruthenium red ([1]; Ca^2+-free medium or ruthenium red (1 μM)): abolished or greatly diminished

Structure (SMILES): CCCCCCCC(O)CC(=O)CCc1ccc2c(c1)OCO2 (centres unmarked) [5-hydroxy-1-(3,4-methylenedioxyphenyl)dodecan-3-one]
- potency in relaxing rat mesenteric artery / vascular bed, in words [3]: showed potency

Structure (SMILES): C[S+](C)[O-] [DMSO, dimethyl sulfoxide]
- % Deaths ([4]; 1 % v/v): 0%
- % Deaths ([4]; 2 % v/v): 0%
- % Deaths ([4]; 3 % v/v): 0%
- % Deaths ([4]; 4 % v/v): 0%
- % Deaths ([4]; 5 % v/v): 9%
- % Deaths ([4]; 7 % v/v): 12%
- % Deaths ([4]; 9 % v/v): 18%
- % Deaths ([4]; 11 % v/v): 57%
- % Deaths ([4]; 13 % v/v): 96%
- % Deaths ([4]; 15 % v/v): 100%
- % Deaths ([4]; 20 % v/v): 100%
- % Deaths ([4]; 25 % v/v): 100%

Structure (SMILES): CCCCCCCC(=O)CC(O)CCc1ccc(O)c(OC)c1 (centres unmarked) [3-hydroxy-1-(4-hydroxy-3-methoxyphenyl)dodecan-5-one]
- potency in relaxing rat mesenteric artery / vascular bed, in words [3]: showed potency

Structure (SMILES): CCCCCCCCCC(=O)CCc1ccc(O)c(OC)c1 [[8]-paradol, 1-(4-hydroxy-3-methoxyphenyl)dodecan-3-one, reference compound]
- Peak [Ca^2+]i (Average ± SD) [1]: 200 nM
- potency in relaxing rat mesenteric artery / vascular bed, in words [3]: showed potency

Structure (SMILES): CCCCCCCC(=O)CCCCc1ccc(O)c(OC)c1 [1-(4-hydroxy-3-methoxyphenyl)dodecan-5-one]
- SR Ca^2+-ATPase activity ([5]; 5 μM): 113
- SR Ca^2+-ATPase activity ([5]; 10 μM): 136
- SR Ca^2+-ATPase activity ([5]; 25 μM): 158
- SR Ca^2+-ATPase activity ([5]; 50 μM): 126
- SR Ca^2+-ATPase activity ([5]; 100 μM): 87
- SR Ca^2+-ATPase activity ([5]; 200 μM): 18

Structure (SMILES): CCCCCCCC(O)CCCCc1ccc(O)c(OC)c1 (centres unmarked) [1-(4-hydroxy-3-methoxyphenyl)dodecan-5-ol]
- Peak [Ca^2+]i (Average ± SD) [1]: 0 nM
- HEART RATE (chronotropic activity), result in words ([2]; assayed to a maximum of 50 μM): ↑weakly

Structure (SMILES): C[C@H]1O[C@@H](O[C@H]2[C@@H](O)C[C@H](O[C@H]3[C@@H](O)C[C@H](O[C@H]4CC[C@@]5(C)[C@H](CC[C@@H]6[C@@H]5C[C@@H](O)[C@]5(C)[C@@H](C7=CC(=O)OC7)CC[C@]65O)C4)O[C@@H]3C)O[C@@H]2C)C[C@H](O)[C@@H]1O [digoxin, reference compound]
- time for tension to reach maximum after addition of a dose [2]: a few mins

Structure (SMILES): CCCCCCCCCC(O)C(=O)c1ccc(O)c(OC)c1 (centres unmarked) [2-hydroxy-1-(4-hydroxy-3-methoxyphenyl)undecan-1-one]
- melting point: 78 to 80 °C

Structure (SMILES): CCCCCCCC(O)CC(=O)CCc1ccc(O)c(OC)c1 (centres unmarked) [[8]-gingerol, 5-hydroxy-1-(4-hydroxy-3-methoxyphenyl)dodecan-3-one, reference compound]
- effect on rate of depolarization, amplitude and duration of action potential (50% and 90%) [6]: insignificant effect
- time to increased cardiac contractility after addition of the drug [2]: 15 s

Structure (SMILES): CCCCCCCCCC(O)CCc1ccc(O)c(OC)c1 (single isomer, unassigned) [enantiomer-1, 1-(4-hydroxy-3-methoxyphenyl)dodecan-3-ol]
- EC50 ([3]; Rattus norvegicus, arteries 200-300 μm, precontracted with endothelin, read-out: EC50, relaxation of small arteries from rat mesentery): 500 nM

Reference: US6518315B1, “Medicinal uses of phenylaikanols and derivatives” (The University of Sydney, priority 1997, dated 2003)
